# Laboratory results taken from PubChem BioAssay AID1259407 (Chemical Carcinogenesis Research Information System (CCRIS), 2018).
# The source made the active and inactive calls. How the calls were made is not given here.
# Tested on: CCRIS mutagenicity, Ames/micronucleus/aberration tests
# Assay: CCRIS mutagenicity studies
# [1] = Test System: AMES SALMONELLA TYPHIMURIUM, Strain/Indicator: TA98, Metabolic Activation: NONE, Method: PREINCUBATION
# [2] = Test System: AMES SALMONELLA TYPHIMURIUM, Strain/Indicator: TA98, Metabolic Activation: RAT, LIVER, S-9, AROCLOR 1254, Method: PREINCUBATION
# [3] = Test System: AMES SALMONELLA TYPHIMURIUM, Strain/Indicator: TA100, Metabolic Activation: NONE, Method: PREINCUBATION
# [4] = Test System: AMES SALMONELLA TYPHIMURIUM, Strain/Indicator: TA100, Metabolic Activation: RAT, LIVER, S-9, AROCLOR 1254, Method: PREINCUBATION
# [5] = Test System: AMES SALMONELLA TYPHIMURIUM, Strain/Indicator: TA98, Metabolic Activation: NONE, Method: STANDARD PLATE
# [6] = Test System: AMES SALMONELLA TYPHIMURIUM, Strain/Indicator: TA100, Metabolic Activation: NONE, Method: STANDARD PLATE
# [7] = Test System: AMES SALMONELLA TYPHIMURIUM, Strain/Indicator: TA1535, Metabolic Activation: NONE, Method: STANDARD PLATE
# [8] = Test System: AMES SALMONELLA TYPHIMURIUM, Strain/Indicator: TA1537, Metabolic Activation: NONE, Method: STANDARD PLATE
smiles,measurement,setting,value
CCOP(=S)(OCC)Oc1nc(Cl)c(Cl)cc1Cl,mutagenic call,"End Point: In vitro chromosomal aberrations, Test System: Human lymphocytes, Metabolic Activation: None",active; positive (structural changes and ploidy)
same,mutagenic call,[1],inactive; negative
same,mutagenic call,[2],inactive; negative
same,mutagenic call,[3],inactive; negative
same,mutagenic call,[4],inactive; negative
same,mutagenic call,"Test System: AMES SALMONELLA TYPHIMURIUM, Strain/Indicator: TA1535, Metabolic Activation: NONE, Method: PREINCUBATION",inactive; negative
same,mutagenic call,"Test System: AMES SALMONELLA TYPHIMURIUM, Strain/Indicator: TA1535, Metabolic Activation: RAT, LIVER, S-9, AROCLOR 1254, Method: PREINCUBATION",inactive; negative
same,mutagenic call,"Test System: AMES SALMONELLA TYPHIMURIUM, Strain/Indicator: TA1537, Metabolic Activation: NONE, Method: PREINCUBATION",inactive; negative
same,mutagenic call,"Test System: AMES SALMONELLA TYPHIMURIUM, Strain/Indicator: TA1537, Metabolic Activation: RAT, LIVER, S-9, AROCLOR 1254, Method: PREINCUBATION",inactive; negative
same,mutagenic call,"Test System: AMES SALMONELLA TYPHIMURIUM, Strain/Indicator: TA1538, Metabolic Activation: NONE, Method: PREINCUBATION",inactive; negative
same,mutagenic call,"Test System: AMES SALMONELLA TYPHIMURIUM, Strain/Indicator: TA1538, Metabolic Activation: RAT, LIVER, S-9, AROCLOR 1254, Method: PREINCUBATION",inactive; negative
same,mutagenic call,"Test System: CHINESE HAMSTER OVARY, Strain/Indicator: CHO-K1-BH4 (HGPRT)/6-THIOGUANINE, Metabolic Activation: NONE",inactive; negative
same,mutagenic call,"Test System: CHINESE HAMSTER OVARY, Strain/Indicator: CHO-K1-BH4 (HGPRT)/6-THIOGUANINE, Metabolic Activation: RAT, LIVER , S-9, AROCLOR 1254",inactive; negative
same,mutagenic call,"Test System: UDS RAT PRIMARY HEPATOCYTES, Strain/Indicator: THY INCORP, Metabolic Activation: NONE, Method: AUTORADIOGRAPHY",inactive; negative
Cc1cc2c3ccccc3ccc2c2ccccc12,mutagenic call,"Test System: AMES SALMONELLA TYPHIMURIUM, Strain/Indicator: TA98, Metabolic Activation: RAT, LIVER, CYTOSOL, AROCLOR 1254, Method: STANDARD PLATE",inactive; negative
same,mutagenic call,"Test System: AMES SALMONELLA TYPHIMURIUM, Strain/Indicator: TA98, Metabolic Activation: RAT, LIVER, MICROSOMES, AROCLOR 1254, Method: STANDARD PLATE",inactive; negative
same,mutagenic call,"Test System: AMES SALMONELLA TYPHIMURIUM, Strain/Indicator: TA100, Metabolic Activation: RAT, LIVER, MICROSOMES, 6-METHYLCHRYSENE, Method: STANDARD PLATE",inactive; negative
same,mutagenic call,"Test System: AMES SALMONELLA TYPHIMURIUM, Strain/Indicator: TA100, Metabolic Activation: RAT, LIVER, MICROSOMES, AROCLOR 1254, Method: STANDARD PLATE",inactive; negative
same,mutagenic call,"Test System: AMES SALMONELLA TYPHIMURIUM, Strain/Indicator: TA100, Metabolic Activation: RAT, LIVER, MICROSOMES, Method: STANDARD PLATE",inactive; negative
CN(C)S(=O)(=O)N(SC(F)(Cl)Cl)c1ccccc1,mutagenic call,"Test System: AMES SALMONELLA TYPHIMURIUM, Strain/Indicator: TA102, Metabolic Activation: NONE, Method: STANDARD PLATE",inactive; negative
same,mutagenic call,"Test System: AMES SALMONELLA TYPHIMURIUM, Strain/Indicator: TA102, Metabolic Activation: RAT, LIVER, S-9, PHENOBARBITAL, Method: STANDARD PLATE",inactive; negative
same,mutagenic call,"Test System: AMES SALMONELLA TYPHIMURIUM, Strain/Indicator: TA104, Metabolic Activation: NONE, Method: STANDARD PLATE",inactive; negative
same,mutagenic call,"Test System: AMES SALMONELLA TYPHIMURIUM, Strain/Indicator: TA104, Metabolic Activation: RAT, LIVER, S-9, PHENOBARBITAL, Method: STANDARD PLATE",inactive; negative
same,mutagenic call,"Test System: E. COLI, Strain/Indicator: WP2HCR, Metabolic Activation: NONE, Method: STANDARD PLATE",active; positive
same,mutagenic call,"Test System: E. COLI, Strain/Indicator: WP2HCR, Metabolic Activation: S-9 MIX, Method: STANDARD PLATE",inactive; negative
Cc1cnc(C)cn1,mutagenic call,[1],inactive; negative
same,mutagenic call,[2],inactive; negative
same,mutagenic call,[3],inactive; negative
same,mutagenic call,[4],inactive; negative
same,mutagenic call,"Test System: AMES SALMONELLA TYPHIMURIUM, Strain/Indicator: TA102, Metabolic Activation: NONE, Method: PREINCUBATION",inactive; negative
same,mutagenic call,"Test System: AMES SALMONELLA TYPHIMURIUM, Strain/Indicator: TA102, Metabolic Activation: RAT, LIVER, S-9, AROCLOR 1254, Method: PREINCUBATION",inactive; negative
CNCCC=C1c2ccccc2CCc2ccccc21,mutagenic call,[5],inactive; negative
same,mutagenic call,"Test System: AMES SALMONELLA TYPHIMURIUM, Strain/Indicator: TA98, Metabolic Activation: RAT, LIVER, S-9, AROCLOR 1254, Method: STANDARD PLATE",inactive; negative
same,mutagenic call,[6],inactive; negative
same,mutagenic call,"Test System: AMES SALMONELLA TYPHIMURIUM, Strain/Indicator: TA100, Metabolic Activation: RAT, LIVER, S-9, AROCLOR 1254, Method: STANDARD PLATE",inactive; negative
same,mutagenic call,[7],inactive; negative
same,mutagenic call,"Test System: AMES SALMONELLA TYPHIMURIUM, Strain/Indicator: TA1535, Metabolic Activation: RAT, LIVER, S-9, AROCLOR 1254, Method: STANDARD PLATE",inactive; negative
same,mutagenic call,[8],inactive; negative
same,mutagenic call,"Test System: AMES SALMONELLA TYPHIMURIUM, Strain/Indicator: TA1537, Metabolic Activation: RAT, LIVER, S-9, AROCLOR 1254, Method: STANDARD PLATE",inactive; negative
CN(C)CCCNc1c2ccccc2nc2ccccc12,mutagenic call,"Test System: AMES SALMONELLA TYPHIMURIUM, Strain/Indicator: TA98(1,8-DNP6), Metabolic Activation: NONE, Method: STANDARD PLATE",inactive; negative
same,mutagenic call,"Test System: AMES SALMONELLA TYPHIMURIUM, Strain/Indicator: TA98(1,8-DNP6), Metabolic Activation: RAT, LIVER, S-9, Method: STANDARD PLATE",inactive; negative
same,mutagenic call,"Test System: AMES SALMONELLA TYPHIMURIUM, Strain/Indicator: TA98(NR), Metabolic Activation: NONE, Method: STANDARD PLATE",inactive; negative
same,mutagenic call,"Test System: AMES SALMONELLA TYPHIMURIUM, Strain/Indicator: TA98(NR), Metabolic Activation: RAT, LIVER, S-9, Method: STANDARD PLATE",active; positive
same,mutagenic call,[5],inactive; negative
same,mutagenic call,"Test System: AMES SALMONELLA TYPHIMURIUM, Strain/Indicator: TA98, Metabolic Activation: RAT, LIVER, S-9, Method: STANDARD PLATE",inactive; negative
same,mutagenic call,[6],inactive; negative
same,mutagenic call,[7],inactive; negative
same,mutagenic call,[8],active; positive
same,mutagenic call,"Test System: AMES SALMONELLA TYPHIMURIUM, Strain/Indicator: TA1537 PKM101, Metabolic Activation: NONE, Method: STANDARD PLATE",active; positive
same,mutagenic call,"Test System: AMES SALMONELLA TYPHIMURIUM, Strain/Indicator: TA1538, Metabolic Activation: NONE, Method: STANDARD PLATE",active; positive
same,mutagenic call,"Test System: CHINESE HAMSTER V-79, Strain/Indicator: V-79/6-THIOGUANINE, Metabolic Activation: NONE, Method: STANDARD PLATE",inactive; negative
same,mutagenic call,"Test System: CHINESE HAMSTER V-79, Strain/Indicator: V-79/OUABAIN, Metabolic Activation: NONE, Method: STANDARD PLATE",inactive; negative
same,mutagenic call,"Test System: Escherichia coli, Strain/Indicator: CC107 (G6 to G7 frameshifts), Metabolic Activation: None, Method: Modified preincubation",active; positive
same,mutagenic call,"Test System: Escherichia coli, Strain/Indicator: CC108 (G6 to G5 frameshifts), Metabolic Activation: None, Method: Modified preincubation",active; positive
same,mutagenic call,"Test System: Escherichia coli, Strain/Indicator: CC109 (CG5 to CG4 frameshifts), Metabolic Activation: None, Method: Modified preincubation",active; positive
same,mutagenic call,"Test System: Escherichia coli, Strain/Indicator: CC111 (A7 to A6 frameshifts), Metabolic Activation: None, Method: Modified preincubation",active; positive
N.N.[Br-].[Br-].[Pt+2],mutagenic call,[1],active; positive
same,mutagenic call,[3],active; positive
CC(C)Sc1cc(Cc2ccc(N)c(SC(C)C)c2)ccc1N,mutagenic call,[1],inactive; negative
same,mutagenic call,"Test System: AMES SALMONELLA TYPHIMURIUM, Strain/Indicator: TA98, Metabolic Activation: RAT, LIVER, S-9, PCB, Method: PREINCUBATION",active; positive
same,mutagenic call,[3],inactive; negative
same,mutagenic call,"Test System: AMES SALMONELLA TYPHIMURIUM, Strain/Indicator: TA100, Metabolic Activation: RAT, LIVER, S-9, PCB, Method: PREINCUBATION",active; positive
